The record followed here is ChEMBL document CHEMBL5344417.

Structures are written as SMILES.

For experiment [1], the target named is T1, Peroxisome proliferator-activated receptor alpha (Homo sapiens) (UniProt Q07869).
T1 sequence (whole entry): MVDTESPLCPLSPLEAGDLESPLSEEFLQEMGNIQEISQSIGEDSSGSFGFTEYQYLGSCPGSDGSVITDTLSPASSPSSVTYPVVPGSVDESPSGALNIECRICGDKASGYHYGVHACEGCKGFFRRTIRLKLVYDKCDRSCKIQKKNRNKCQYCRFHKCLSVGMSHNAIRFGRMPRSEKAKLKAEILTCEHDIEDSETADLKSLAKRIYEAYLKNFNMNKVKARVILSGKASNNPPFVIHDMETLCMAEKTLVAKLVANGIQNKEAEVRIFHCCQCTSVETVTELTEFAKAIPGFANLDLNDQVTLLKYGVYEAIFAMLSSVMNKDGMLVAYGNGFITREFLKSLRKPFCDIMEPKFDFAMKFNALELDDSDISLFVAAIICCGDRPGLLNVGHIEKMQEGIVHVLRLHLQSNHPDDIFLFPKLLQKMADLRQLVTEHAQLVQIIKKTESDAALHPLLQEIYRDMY
To be noted: filed as agonist.
Description: Binding affinity to recombinant PPAR alpha LBD (unknown origin) expressed in Escherichia coli BL21 assessed as melting temperature by differential scanning calorimetry analysis (Rvb = 47.45 degreeC)

The target in experiment [2] is T2, Peroxisome proliferator-activated receptor gamma (Homo sapiens) (UniProt P37231).
T2 sequence (whole entry): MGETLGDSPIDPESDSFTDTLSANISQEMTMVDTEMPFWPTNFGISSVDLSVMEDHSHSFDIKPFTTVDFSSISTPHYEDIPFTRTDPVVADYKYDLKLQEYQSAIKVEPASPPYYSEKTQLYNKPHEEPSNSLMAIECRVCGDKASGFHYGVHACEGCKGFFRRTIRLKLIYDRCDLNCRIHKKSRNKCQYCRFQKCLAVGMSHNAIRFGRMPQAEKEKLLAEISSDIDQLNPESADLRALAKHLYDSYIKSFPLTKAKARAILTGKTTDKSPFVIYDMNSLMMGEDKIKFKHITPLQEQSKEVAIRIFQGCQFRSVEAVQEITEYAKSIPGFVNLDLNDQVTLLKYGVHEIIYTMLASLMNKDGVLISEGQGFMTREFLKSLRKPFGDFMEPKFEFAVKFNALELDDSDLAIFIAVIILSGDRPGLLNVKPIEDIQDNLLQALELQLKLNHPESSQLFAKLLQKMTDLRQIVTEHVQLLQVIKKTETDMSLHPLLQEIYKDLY
Particulars: filed as agonist.

With `Cc1cccc(Nc2cc(Cl)nc(SCC(=O)O)n2)c1C`, the Tm in experiment [1] was 50 °C.

Turning to `CN(CCOc1ccc(CC2SC(=O)NC2=O)cc1)c1ccccn1` (configuration not stated), in experiment [2], the Tm was 53 °C.
